# Where “and” joins values, the source holds several entries; their conditions need not be identical. Equal entries are not always repeated. Where two headings read alike, the source gives them in different places. Marks after values point to notes of the source that are not given here.
# Tests used:
# [1] = Comparative in vivo bioavailability study in the dog (oral gavage, plasma LC-MS-MS)
# Experimental: Test substances (i.e., tapentadol (1 mg/kg) and tapentadol valine carbamate (0.8 mg tapentadol base equivalents/kg)) were administered by oral gavage to a group of five dogs (dog nos. 1, 2, 3, 4 and 5) in a two-way crossover design. The characteristics of the test animals are set out in Table 3.
# (§1) Blood samples were taken at various times after administration and submitted to analysis for the parent drug and pro-drug using a validated LC-MS-MS assay. Pharmacokinetic parameters derived from the plasma analytical data were determined using Win Nonlin.
# [2] = test system: guinea pig small intestine myenteric plexus longitudinal muscle; experiment: Electrical field stimulation response of isolated guinea pig small intestine smooth muscle (ex vivo); conditions: isolated guinea pig ileum
# Experimental: Strips of guinea pig small intestine myenteric plexus longitudinal muscle and mounted between platinum ring electrodes. The tissue was stretched to a steady tension of about 1 g and changes in force production were recorded using sensitive transducers.
# The optimal voltage for stimulation was determined while the tissue was paced with electrical field stimulation (EFS) at 14 Hz, with a pulse width of 0.5 msec (Trains of pulses for 20 seconds, every 50 seconds).
# EFS at optimal voltage continued throughout the protocol (stable responses=“baseline measurement of EFS”).
# The 3 test conditions employed were as follows:
# (1) Vehicle (deionised water, added at equivalent volume additions to test articles), (2) Tapentadol at 6 concentrations (10 nM, 100 nM, 1 μM, 3 μM, 10 μM & 30 μM) (3) Tapentadol valine carbamate at 6 concentrations (10 nM, 100 nM, 1 μM, 3 μM, 10 μM, & 30 μM).
# Following 10 minutes of baseline EFS, first addition of test article or vehicle (deionized water) was performed.
# Test concentrations were added in a non-cumulative manner with PSS washes between each addition. Next, TTX (Na+ channel blocker) was added to confirm EFS responses were elicited via nerve stimulation. EFS was then stopped.
# [3] = Comparative bioavailability after oral administration to rats (plasma LC-MS-MS); type: in vivo
# Experimental: Test substances, i.e., tapentadol or tapentadol valine carbamate were administered by oral gavage to groups of male Sprague Dawley rats.
# as §1
# [4] = Comparative bioavailability after oral or intravenous administration to monkeys (plasma LC-MS-MS); type: in vivo, cynomolgus monkey; conditions: male monkey, i.v. tapentadol valine carbamate 0.5 mg tapentadol free base equiv/kg, individual animals 1-5
# Experimental: Test substances i.e., tapentadol and tapentadol valine carbamate were administered (either intravenously or orally) to a group of five male cynomolgus monkeys in a three way crossover design. The oral doses were given at 1 mg tapentadol base equivalents/kg while the intravenous dose was 0.5 mg/kg
# Blood samples were taken at various times after administration and submitted to analysis for the parent drug and tapentadol valine carbamate using a validated LC-MS-MS assay. Pharmacokinetic parameters derived from the plasma analytical data were determined using Win Nonlin.
# [5] = oral tapentadol valine carbamate 0.8 mg tapentadol base equiv/kg, individual dogs 1-5
# [6] = male rat, oral tapentadol valine carbamate 10 mg tapentadol free base equiv/kg, individual animals 6-10
smiles,measurement,setting,value
"CC[C@H](c1cccc(OC(=O)N[C@H](C(=O)O)C(C)C)c1)[C@H](C)CN(C)C (racemic) [Tapentadol valine carbamate, 2-[3-(3-Dimethylamino-1-ethyl-2-methyl-propyl)-phenoxycarbonylamino]-3-methyl-butyric acid]",half-life,"[1]; Beagle, plasma, po, 0.8 mg/kg, oral tapentadol valine carbamate 0.8 mg tapentadol base equiv/kg, calculated as ln2/mean k, read-out: t½ of tapentadol valine carbamate (converted)",4.8 h
same,Cmax,"[1]; Beagle, plasma, po, 0.8 mg/kg, oral tapentadol valine carbamate 0.8 mg tapentadol base equiv/kg, individual dogs 1-5, read-out: Cmax of tapentadol valine carbamate",42.8 ng/mL
same,AUC,"[1]; Beagle, plasma, po, 0.8 mg/kg, oral tapentadol valine carbamate 0.8 mg tapentadol base equiv/kg, mean of 5 dogs, read-out: AUC of tapentadol valine carbamate",205 ng·h/mL
same,AUC(0-t),"[1]; Beagle, plasma, po, 0.8 mg/kg, oral tapentadol valine carbamate 0.8 mg tapentadol base equiv/kg, mean of 5 dogs, read-out: AUCt of tapentadol valine carbamate",192 ng·h/mL
same,Cmax,"[1]; Beagle, plasma, po, 0.8 mg/kg, oral tapentadol valine carbamate 0.8 mg tapentadol base equiv/kg, mean of 5 dogs, read-out: Cmax of tapentadol valine carbamate",53.4 ng/mL
same,Tmax,"[1]; Beagle, plasma, po, 0.8 mg/kg, oral tapentadol valine carbamate 0.8 mg tapentadol base equiv/kg, median of 5 dogs, read-out: Tmax of tapentadol valine carbamate",1 h
same,increase of duration of sustainment of active drug in the blood,[1]; following administration of the prodrug compared to tapentadol alone,two to three fold
same,duration of drug sustainment in plasma,[1]; oral prodrug vs oral tapentadol,doubling
same,AUC of tapentadol valine carbamate,[1]; [5],157 ng·h/mL and 126 ng·h/mL and 272 ng·h/mL and 221 ng·h/mL and 252 ng·h/mL
same,AUCt of tapentadol valine carbamate,[1]; [5],131 ng·h/mL and 119 ng·h/mL and 260 ng·h/mL and 208 ng·h/mL and 241 ng·h/mL
same,Cmax of tapentadol valine carbamate,[1]; [5],45.3 ng/mL and 62.3 ng/mL and 46.4 ng/mL and 70.0 ng/mL
same,T>50%Cmax of tapentadol valine carbamate,[1]; [5],1.5 h (4×) and 0.5 h
same,Tmax of tapentadol valine carbamate,[1]; [5],2 h
same,t½ of tapentadol valine carbamate,[1]; [5],6.7 h and 3.0 h and 5.0 h and 5.9 h and 5.3 h
same,T>50%Cmax of tapentadol valine carbamate,"[1]; oral tapentadol valine carbamate 0.8 mg tapentadol base equiv/kg, median of 5 dogs",1.5^a h
same,EC50,"[2]; Cavia porcellus, EFS 14 Hz, non-cumulative 10 nM-30 μM, read-out: approximate EC50, effect on electrical field stimulation response",~10 µM
same,reduction in the opioid effects on ileal smooth muscle compared to tapentadol,[2]; EFS,50 fold
same,concentration at 0.5 h,"[3]; Sprague Dawley, plasma, male rat, oral tapentadol valine carbamate 10 mg tapentadol free base equiv/kg, 0.5 h, individual animals 6-10, read-out: Plasma concentration of tapentadol valine carbamate",64.5 ng/mL
same,concentration at 1 h,"[3]; Sprague Dawley, plasma, male rat, oral tapentadol valine carbamate 10 mg tapentadol free base equiv/kg, 1 h, individual animals 6-10, read-out: Plasma concentration of tapentadol valine carbamate",72.4 ng/mL
same,concentration at 2 h,"[3]; Sprague Dawley, plasma, male rat, oral tapentadol valine carbamate 10 mg tapentadol free base equiv/kg, 2 h, individual animals 6-10, read-out: Plasma concentration of tapentadol valine carbamate",85.8 ng/mL
same,concentration at 4 h,"[3]; Sprague Dawley, plasma, male rat, oral tapentadol valine carbamate 10 mg tapentadol free base equiv/kg, 4 h, individual animals 6-10, read-out: Plasma concentration of tapentadol valine carbamate",42.5 ng/mL
same,concentration at 6 h,"[3]; Sprague Dawley, plasma, male rat, oral tapentadol valine carbamate 10 mg tapentadol free base equiv/kg, 6 h, individual animals 6-10, read-out: Plasma concentration of tapentadol valine carbamate",30.5 ng/mL
same,Plasma concentration of tapentadol valine carbamate,"[3]; male rat, oral tapentadol valine carbamate 10 mg tapentadol free base equiv/kg, 0.5 h, individual animals 6-10",79.5 ng/mL and 86.5 ng/mL and 77.5 ng/mL and 111 ng/mL
same,Plasma concentration of tapentadol valine carbamate,"[3]; male rat, oral tapentadol valine carbamate 10 mg tapentadol free base equiv/kg, 1 h, individual animals 6-10",73.8 ng/mL and 88.9 ng/mL and 83.1 ng/mL and 115 ng/mL
same,Plasma concentration of tapentadol valine carbamate,"[3]; male rat, oral tapentadol valine carbamate 10 mg tapentadol free base equiv/kg, 2 h, individual animals 6-10",57.3 ng/mL and 106 ng/mL and 76.4 ng/mL and 86.6 ng/mL
same,Plasma concentration of tapentadol valine carbamate,"[3]; male rat, oral tapentadol valine carbamate 10 mg tapentadol free base equiv/kg, 3 h, individual animals 6-10",76.7 ng/mL and 71.6 ng/mL and 74.8 ng/mL and 34.5 ng/mL and 86.4 ng/mL
same,Plasma concentration of tapentadol valine carbamate,"[3]; male rat, oral tapentadol valine carbamate 10 mg tapentadol free base equiv/kg, 4 h, individual animals 6-10",46.7 ng/mL and 47.0 ng/mL and 27.5 ng/mL and 51.6 ng/mL
same,Plasma concentration of tapentadol valine carbamate,"[3]; male rat, oral tapentadol valine carbamate 10 mg tapentadol free base equiv/kg, 6 h, individual animals 6-10",19.9 ng/mL and 38.9 ng/mL and 22.7 ng/mL and 31.3 ng/mL
same,Plasma concentration of tapentadol valine carbamate,"[3]; male rat, oral tapentadol valine carbamate 10 mg tapentadol free base equiv/kg, 8 h, individual animals 6-10",32.7 ng/mL and 14.6 ng/mL and 26.5 ng/mL and 21.3 ng/mL and 25.4 ng/mL
same,Plasma concentration of tapentadol valine carbamate,"[3]; male rat, oral tapentadol valine carbamate 10 mg tapentadol free base equiv/kg, 12 h, individual animals 6-10",9.49 ng/mL and 27.0 ng/mL and 11.4 ng/mL and 5.81 ng/mL and 14.5 ng/mL
same,Plasma concentration of tapentadol valine carbamate,"[3]; male rat, oral tapentadol valine carbamate 10 mg tapentadol free base equiv/kg, 24 h, individual animals 6-10",2.00 ng/mL and 0.915 ng/mL and 0.801 ng/mL and 0.656 ng/mL and 0.548 ng/mL
same,AUCt of tapentadol valine carbamate,[3]; [6],599 ng·h/mL and 615 ng·h/mL and 413 ng·h/mL and 650 ng·h/mL
same,Cmax of tapentadol valine carbamate,[3]; [6],79.5 ng/mL and 106 ng/mL and 83.1 ng/mL and 115 ng/mL
same,T>50%Cmax of tapentadol valine carbamate,[3]; [6],2.5 h (2×) and 3.5 h (2×) and 1.5 h
same,Tmax of tapentadol valine carbamate,[3]; [6],2 h
same,t½ of tapentadol valine carbamate,[3]; [6],3.83 h and 3.16 h and 3.60 h and 3.06 h
same,T>50%Cmax of tapentadol valine carbamate,"[3]; male rat, oral tapentadol valine carbamate 10 mg tapentadol free base equiv/kg, median",2.5^a h
same,Peak plasma levels of tapentadol compared with those after administration of the parent drug,"[3]; male rat, oral, 10 mg tapentadol free base equiv/kg",somewhat lower
same,concentration at 0.5 h,"[3]; male, Sprague Dawley, rat, plasma, po, 10 mg tapentadol free base equiv/kg, oral tapentadol valine carbamate 10 mg tapentadol free base equiv/kg, 0.5 h, mean, read-out: Plasma concentration of tapentadol valine carbamate",83.8 ng/mL
same,concentration at 1 h,"[3]; male, Sprague Dawley, rat, plasma, po, 10 mg tapentadol free base equiv/kg, oral tapentadol valine carbamate 10 mg tapentadol free base equiv/kg, 1 h, mean, read-out: Plasma concentration of tapentadol valine carbamate",86.6 ng/mL
same,concentration at 2 h,"[3]; male, Sprague Dawley, rat, plasma, po, 10 mg tapentadol free base equiv/kg, oral tapentadol valine carbamate 10 mg tapentadol free base equiv/kg, 2 h, mean, read-out: Plasma concentration of tapentadol valine carbamate",82.4 ng/mL
same,concentration at 3 h,"[3]; male, Sprague Dawley, rat, plasma, po, 10 mg tapentadol free base equiv/kg, oral tapentadol valine carbamate 10 mg tapentadol free base equiv/kg, 3 h, mean, read-out: Plasma concentration of tapentadol valine carbamate",68.8 ng/mL
same,concentration at 4 h,"[3]; male, Sprague Dawley, rat, plasma, po, 10 mg tapentadol free base equiv/kg, oral tapentadol valine carbamate 10 mg tapentadol free base equiv/kg, 4 h, mean, read-out: Plasma concentration of tapentadol valine carbamate",43.1 ng/mL
same,concentration at 6 h,"[3]; male, Sprague Dawley, rat, plasma, po, 10 mg tapentadol free base equiv/kg, oral tapentadol valine carbamate 10 mg tapentadol free base equiv/kg, 6 h, mean, read-out: Plasma concentration of tapentadol valine carbamate",28.7 ng/mL
same,concentration at 8 h,"[3]; male, Sprague Dawley, rat, plasma, po, 10 mg tapentadol free base equiv/kg, oral tapentadol valine carbamate 10 mg tapentadol free base equiv/kg, 8 h, mean, read-out: Plasma concentration of tapentadol valine carbamate",24.1 ng/mL
same,concentration at 12 h,"[3]; male, Sprague Dawley, rat, plasma, po, 10 mg tapentadol free base equiv/kg, oral tapentadol valine carbamate 10 mg tapentadol free base equiv/kg, 12 h, mean, read-out: Plasma concentration of tapentadol valine carbamate",13.6 ng/mL
same,concentration at 24 h,"[3]; male, Sprague Dawley, rat, plasma, po, 10 mg tapentadol free base equiv/kg, oral tapentadol valine carbamate 10 mg tapentadol free base equiv/kg, 24 h, mean",0.984 ng/mL
same,half-life,"[3]; male, Sprague Dawley, rat, plasma, po, 10 mg tapentadol free base equiv/kg, oral tapentadol valine carbamate 10 mg tapentadol free base equiv/kg, calculated as ln2/mean k, read-out: t½ of tapentadol valine carbamate (converted)",3.54 h
same,AUC(0-t),"[3]; male, Sprague Dawley, rat, plasma, po, 10 mg tapentadol free base equiv/kg, oral tapentadol valine carbamate 10 mg tapentadol free base equiv/kg, individual animals 6-10, read-out: AUCt of tapentadol valine carbamate",560 ng·h/mL
same,Cmax,"[3]; male, Sprague Dawley, rat, plasma, po, 10 mg tapentadol free base equiv/kg, oral tapentadol valine carbamate 10 mg tapentadol free base equiv/kg, individual animals 6-10, read-out: Cmax of tapentadol valine carbamate",85.8 ng/mL
same,half-life,"[3]; male, Sprague Dawley, rat, plasma, po, 10 mg tapentadol free base equiv/kg, oral tapentadol valine carbamate 10 mg tapentadol free base equiv/kg, individual animals 6-10, read-out: t½ of tapentadol valine carbamate (converted)",4.08 h
same,AUC(0-t),"[3]; male, Sprague Dawley, rat, plasma, po, 10 mg tapentadol free base equiv/kg, oral tapentadol valine carbamate 10 mg tapentadol free base equiv/kg, mean, read-out: AUCt of tapentadol valine carbamate",567 ng·h/mL
same,Cmax,"[3]; male, Sprague Dawley, rat, plasma, po, 10 mg tapentadol free base equiv/kg, oral tapentadol valine carbamate 10 mg tapentadol free base equiv/kg, mean, read-out: Cmax of tapentadol valine carbamate",93.9 ng/mL
same,Tmax,"[3]; male, Sprague Dawley, rat, plasma, po, 10 mg tapentadol free base equiv/kg, oral tapentadol valine carbamate 10 mg tapentadol free base equiv/kg, median, read-out: Tmax of tapentadol valine carbamate",1 h
same,concentration at 0.083 h,"[4]; cynomolgus monkey, plasma, iv, 0.083 h",790 ng/mL
same,concentration at 0.25 h,"[4]; cynomolgus monkey, plasma, iv, 0.25 h",783 ng/mL
same,concentration at 1 h,"[4]; cynomolgus monkey, plasma, iv, 1 h",222 ng/mL
same,concentration at 2 h,"[4]; cynomolgus monkey, plasma, iv, 2 h",92.3 ng/mL
same,concentration at 4 h,"[4]; cynomolgus monkey, plasma, iv, 4 h",11.8 ng/mL
same,concentration at 6 h,"[4]; cynomolgus monkey, plasma, iv, 6 h",3.21 ng/mL
same,Plasma concentration of tapentadol valine carbamate,[4]; 0 h,BLQ (BLQ Values less than LOQ (<0.5 ng/mL))
same,Plasma concentration of tapentadol valine carbamate,[4]; 0.083 h,951 ng/mL and 914 ng/mL and 1166 ng/mL and 1024 ng/mL

# — patent US20100227921A1, “AMINO ACID AND PEPTIDE CARBAMATE PRODRUGS OF […] USES THEREOF” (SHIRE LLC, priority 2009, published 2010)
